Target: PTPN6 (Homo sapiens, UniProt P29350)
Experiment: DiFMUP fluorescence phosphatase assay with recombinant enzyme purified from E. coli
Type: biochemical

Chain of PTPN6 (P29350 whole entry): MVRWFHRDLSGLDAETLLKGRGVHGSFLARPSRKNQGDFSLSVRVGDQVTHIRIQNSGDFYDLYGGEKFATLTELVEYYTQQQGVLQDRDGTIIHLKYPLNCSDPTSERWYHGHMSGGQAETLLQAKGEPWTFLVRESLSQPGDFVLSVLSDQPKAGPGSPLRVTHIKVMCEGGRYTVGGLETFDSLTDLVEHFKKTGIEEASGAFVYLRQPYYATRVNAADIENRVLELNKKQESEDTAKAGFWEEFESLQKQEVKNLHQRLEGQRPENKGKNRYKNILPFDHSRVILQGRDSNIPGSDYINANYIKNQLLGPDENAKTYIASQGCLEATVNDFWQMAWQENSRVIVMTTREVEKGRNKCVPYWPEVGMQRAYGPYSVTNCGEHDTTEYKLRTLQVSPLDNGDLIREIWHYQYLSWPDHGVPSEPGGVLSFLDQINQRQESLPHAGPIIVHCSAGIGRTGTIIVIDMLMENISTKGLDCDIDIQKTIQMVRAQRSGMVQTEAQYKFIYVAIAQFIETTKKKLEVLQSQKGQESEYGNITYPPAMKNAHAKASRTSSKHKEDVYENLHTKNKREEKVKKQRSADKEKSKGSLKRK

O=c1c(O)c(-c2ccc(O)c(O)c2)oc2cc(O[C@@H]3O[C@H](CO)[C@@H](O)[C@H](O)[C@H]3O)c(O)c(O)c12 [QG, quercetagitrin]
IC50: 1000 nM
